{"source": "paper PMC10547168", "about": "“Cell cycle-dependent organization of a bacterial centromere through multi-layered regulation of the ParABS system” (PLOS Genetics, 2023)", "biological_target": "T1, ParBBb (Bdellovibrio bacteriovorus, UniProt Q6MGM0)", "T1 construct": "gene parB; C-terminal 6xHis tag kept (pET21), expressed in E. coli BL21(DE3); HisTrap and Superdex 75 purified; dimer", "T1 sequence (Q6MGM0 1-337)": "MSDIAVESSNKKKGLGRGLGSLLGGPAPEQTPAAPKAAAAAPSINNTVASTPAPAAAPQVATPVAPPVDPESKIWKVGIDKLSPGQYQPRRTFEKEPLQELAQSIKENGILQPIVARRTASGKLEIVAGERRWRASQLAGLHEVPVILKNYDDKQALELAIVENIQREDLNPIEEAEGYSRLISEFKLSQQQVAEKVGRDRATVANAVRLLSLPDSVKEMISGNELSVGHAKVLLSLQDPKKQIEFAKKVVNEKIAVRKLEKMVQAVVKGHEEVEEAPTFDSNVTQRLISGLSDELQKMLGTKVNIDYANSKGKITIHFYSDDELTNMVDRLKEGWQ", "assay": "EnzChek phosphate release assay (A360)", "format": "biochemical", "settings": "1 mM NTP, 1 uM ParBBb, 22 bp parSBb DNA duplex, Mg2+, Tris pH 8.0, 25 °C", "data": [{"smiles": "Nc1ccn([C@@H]2O[C@H](COP(=O)(O)OP(=O)(O)OP(=O)(O)O)[C@@H](O)[C@H]2O)c(=O)n1", "note": "[CTP]", "values": [{"measurement": "EnzChek phosphate release assay (A360)", "value": "ParBBb hydrolyses CTP but no other NTPs in the presence of parSBb"}]}]}
